# Non-standard residues stand in square brackets, D forms with d. Residues, ends and D or L forms follow the SMILES beside them. *: point of attachment. Lauroyl = CCCCCCCCCCCC(=O)*
# Columns and labels:
# Type in all cases: cell-based
# [1] = system: Staphylococcus aureus ATCC 29213; test: MIC, NCCLS M7-A6 broth microdilution, cation-adjusted Mueller Hinton broth (Table 9, no superscript); settings: ATCC 29213
# Method in brief: (§1)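 CAMHB microdilution; final inoculum 5×10^5–1×10^6 CFU/milliliter from log-phase culture; overnight, 37° C; MIC = lowest peptide conc. without visible growth (turbidity) vs no-peptide control.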
# [2] = system: Escherichia coli ATCC 25922; test: MIC, NCCLS M7-A6 broth microdilution (Table 9, no superscript); settings: ATCC 25922
# Method in brief: as §1
# [3] = system: Pseudomonas aeruginosa ATCC 27853; test: as above; settings: ATCC 27853
# Method in brief: as §1
# Salmonella dublin (Lane) = test: as above
# Method in brief: as §1
# [4] = system: Staphylococcus epidermidis ATCC 12228; test: as above; settings: ATCC 12228
# Method in brief: as §1
SMILES,MIC S. aureus [1] [µg/mL],MIC E. coli [2] [µg/mL],MIC P. aeruginosa [3] [µg/mL],MIC S. dublin (Salmonella dublin (Lane)) [µg/mL],MIC S. epidermidis [4] [µg/mL]
"CCCCCCCCCCCC(=O)N[C@H](CCCNC(=N)N)C(=O)N[C@H](CO)C(=O)N[C@H](CCCNC(=N)N)C(=O)N[C@H](Cc1c[nH]c2ccccc12)C(=O)N[C@H](CCCNC(=N)N)C(=O)N[C@H](CC(=O)O)C(=O)N[C@@H](C(=O)N[C@H](C)C(=O)N[C@H](CCCNC(=N)N)C(=O)N[C@H](CC(N)=O)C(=O)N[C@H](Cc1ccccc1)C(=O)N[C@H](CCSC)C(=O)N[C@H](C)C(N)=O)C(C)C [Peptide 231, Lauryl-rsrwrdvarnfma-NH2] (Lauroyl-[dR][dS][dR][dW][dR][dD][dV][dA][dR][dN][dF][dM][dA]-NH2)",32,>64,32,>64,4
"CCCCCCCCCCCC(=O)N[C@H](CCCNC(=N)N)C(=O)N[C@H](CO)C(=O)N[C@H](CCCNC(=N)N)C(=O)N[C@H](CO)C(=O)N[C@H](CCCNC(=N)N)C(=O)N[C@H](CC(=O)O)C(=O)N[C@@H](C(=O)N[C@H](C)C(=O)N[C@H](CCCNC(=N)N)C(=O)N[C@H](CC(N)=O)C(=O)N[C@H](Cc1ccccc1)C(=O)N[C@H](CCSC)C(=O)N[C@H](CCCNC(=N)N)C(N)=O)C(C)C [Peptide 232, Lauryl-rsrsrdvarnfmr-NH2] (Lauroyl-[dR][dS][dR][dS][dR][dD][dV][dA][dR][dN][dF][dM][dR]-NH2)",>64,>64,>64,>64,16
"CCCCCCCCCCCC(=O)N[C@H](CCCNC(=N)N)C(=O)N[C@H](CO)C(=O)N[C@H](CCCNC(=N)N)C(=O)N[C@H](Cc1c[nH]c2ccccc12)C(=O)N[C@H](CCCNC(=N)N)C(=O)N[C@H](CC(=O)O)C(=O)N[C@@H](C(=O)N[C@H](C)C(=O)N[C@H](CCCNC(=N)N)C(=O)N[C@H](CC(N)=O)C(=O)N[C@H](CO)C(=O)N[C@H](CCSC)C(=O)N[C@H](CCCNC(=N)N)C(N)=O)C(C)C [Peptide 234, Lauryl-rsrwrdvarnsmr-NH2] (Lauroyl-[dR][dS][dR][dW][dR][dD][dV][dA][dR][dN][dS][dM][dR]-NH2)",64,>64,>64,64,16

# Further lines, results first:
MIC S. aureus [1] [µg/mL],MIC E. coli [2] [µg/mL],MIC P. aeruginosa [3] [µg/mL],MIC S. dublin (Salmonella dublin (Lane)) [µg/mL],MIC S. epidermidis [4] [µg/mL],SMILES
16,16,64,32,8,"CCCCCCCCCCCC(=O)N[C@H](CCCNC(=N)N)C(=O)N[C@H](CO)C(=O)N[C@H](CCCNC(=N)N)C(=O)N[C@H](Cc1c[nH]c2ccccc12)C(=O)N[C@H](CCCNC(=N)N)C(=O)N[C@H](CC(=O)O)C(=O)N[C@@H](C(=O)N[C@H](C)C(=O)N[C@H](CCCNC(=N)N)C(=O)N[C@H](CC(N)=O)C(=O)N[C@H](Cc1ccccc1)C(=O)N[C@H](CO)C(=O)N[C@H](CCCNC(=N)N)C(N)=O)C(C)C [Peptide 235, Lauryl-rsrwrdvarnfsr-NH2] (Lauroyl-[dR][dS][dR][dW][dR][dD][dV][dA][dR][dN][dF][dS][dR]-NH2)"
32,64,>64,>64,16,"CCCCCCCCCCCC(=O)N[C@H](C)C(=O)N[C@H](CO)C(=O)N[C@H](CCCNC(=N)N)C(=O)N[C@H](Cc1c[nH]c2ccccc12)C(=O)N[C@H](CCCNC(=N)N)C(=O)N[C@H](CC(=O)O)C(=O)N[C@@H](C(=O)N[C@H](C)C(=O)N[C@H](CCCNC(=N)N)C(=O)N[C@H](CC(N)=O)C(=O)N[C@H](Cc1ccccc1)C(=O)N[C@H](CCSC)C(=O)N[C@H](CCCNC(=N)N)C(N)=O)C(C)C [Peptide 236, Lauryl-asrwrdvarnfmr-NH2] (Lauroyl-[dA][dS][dR][dW][dR][dD][dV][dA][dR][dN][dF][dM][dR]-NH2)"
